Tests used:
Assay in all cases: Standardized radiometric kinase assays, percentage of activity at 0.5 μM;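 note: Read-out is ³³P-labelled substrate protein phosphorylated by each kinase, captured on filters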
[1] = molecular target: each individual kinase of the panel (Homo sapiens, UniProt O15111); settings: for % Activity: IKKα(h)
[2] = molecular target: each individual kinase of the panel (Homo sapiens, UniProt O60674); settings: for % Activity: JAK2(h)
[3] = molecular target: each individual kinase of the panel (Homo sapiens, UniProt O75676); settings: for % Activity: MSK2(h)
[4] = molecular target: each individual kinase of the panel (Homo sapiens, UniProt O94804); settings: for % Activity: LOK(h)
[5] = molecular target: each individual kinase of the panel (Homo sapiens, UniProt P00519); settings: for % Activity: Abl(h)
[6] = molecular target: each individual kinase of the panel (Homo sapiens, UniProt P00533); settings: for % Activity: EGFR(h)
[7] = molecular target: each individual kinase of the panel (Homo sapiens, UniProt P00533, L858R/T790M); settings: for % Activity: EGFR(T790M,L858R)(h)
[8] = molecular target: each individual kinase of the panel (Homo sapiens, UniProt P00533, L861Q); settings: for % Activity: EGFR(L861Q)(h)
[9] = molecular target: each individual kinase of the panel (Homo sapiens, UniProt P04049); settings: for % Activity: c-RAF(h)
[10] = molecular target: each individual kinase of the panel (Homo sapiens, UniProt P04629); settings: for % Activity: TrkA(h)
[11] = molecular target: each individual kinase of the panel (Homo sapiens, UniProt P06213); settings: for % Activity: IR(h)
Chain of each individual kinase of the panel (Homo sapiens, UniProt P06213) (P06213 28-758 limits assumed): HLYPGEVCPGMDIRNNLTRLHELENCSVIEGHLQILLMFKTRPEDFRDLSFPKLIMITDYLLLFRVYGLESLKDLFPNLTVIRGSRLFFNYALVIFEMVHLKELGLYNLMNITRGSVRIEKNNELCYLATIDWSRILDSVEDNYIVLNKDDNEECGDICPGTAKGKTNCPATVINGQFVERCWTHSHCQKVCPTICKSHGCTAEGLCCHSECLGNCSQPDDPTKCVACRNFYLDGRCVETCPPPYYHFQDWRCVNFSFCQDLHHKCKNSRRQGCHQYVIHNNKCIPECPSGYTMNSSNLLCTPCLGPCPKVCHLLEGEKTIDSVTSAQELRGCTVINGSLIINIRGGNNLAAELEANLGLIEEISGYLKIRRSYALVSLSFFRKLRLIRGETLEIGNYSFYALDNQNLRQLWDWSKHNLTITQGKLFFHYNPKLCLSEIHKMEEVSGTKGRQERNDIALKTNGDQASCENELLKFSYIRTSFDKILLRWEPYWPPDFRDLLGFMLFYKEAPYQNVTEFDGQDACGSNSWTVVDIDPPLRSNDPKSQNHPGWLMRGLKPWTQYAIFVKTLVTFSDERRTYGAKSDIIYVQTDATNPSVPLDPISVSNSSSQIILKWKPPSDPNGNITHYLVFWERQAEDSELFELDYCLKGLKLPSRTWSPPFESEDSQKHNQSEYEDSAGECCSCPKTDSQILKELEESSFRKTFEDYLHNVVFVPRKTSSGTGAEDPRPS
Chain of each individual kinase of the panel (Homo sapiens, UniProt P06213) (P06213 763-1382 limits assumed): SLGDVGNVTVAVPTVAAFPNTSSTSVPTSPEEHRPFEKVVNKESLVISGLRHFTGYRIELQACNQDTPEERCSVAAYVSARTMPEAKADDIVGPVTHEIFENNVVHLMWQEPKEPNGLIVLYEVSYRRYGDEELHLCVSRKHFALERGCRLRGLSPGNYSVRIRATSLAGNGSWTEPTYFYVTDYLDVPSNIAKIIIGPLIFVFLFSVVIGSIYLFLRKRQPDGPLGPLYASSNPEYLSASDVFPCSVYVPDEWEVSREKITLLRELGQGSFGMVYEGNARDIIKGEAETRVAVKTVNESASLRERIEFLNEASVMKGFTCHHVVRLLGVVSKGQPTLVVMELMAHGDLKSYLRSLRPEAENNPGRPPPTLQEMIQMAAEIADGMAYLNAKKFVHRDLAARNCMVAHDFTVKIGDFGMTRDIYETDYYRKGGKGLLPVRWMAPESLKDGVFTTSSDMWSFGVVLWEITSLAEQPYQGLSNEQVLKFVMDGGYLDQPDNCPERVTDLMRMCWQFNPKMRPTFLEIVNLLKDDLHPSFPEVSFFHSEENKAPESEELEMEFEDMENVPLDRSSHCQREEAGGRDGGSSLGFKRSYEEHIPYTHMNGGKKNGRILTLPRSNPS

[12] = molecular target: each individual kinase of the panel (Homo sapiens, UniProt P06239); settings: for % Activity: Lck(h)
Chain of each individual kinase of the panel (Homo sapiens, UniProt P06239) (P06239 2-509 limits assumed): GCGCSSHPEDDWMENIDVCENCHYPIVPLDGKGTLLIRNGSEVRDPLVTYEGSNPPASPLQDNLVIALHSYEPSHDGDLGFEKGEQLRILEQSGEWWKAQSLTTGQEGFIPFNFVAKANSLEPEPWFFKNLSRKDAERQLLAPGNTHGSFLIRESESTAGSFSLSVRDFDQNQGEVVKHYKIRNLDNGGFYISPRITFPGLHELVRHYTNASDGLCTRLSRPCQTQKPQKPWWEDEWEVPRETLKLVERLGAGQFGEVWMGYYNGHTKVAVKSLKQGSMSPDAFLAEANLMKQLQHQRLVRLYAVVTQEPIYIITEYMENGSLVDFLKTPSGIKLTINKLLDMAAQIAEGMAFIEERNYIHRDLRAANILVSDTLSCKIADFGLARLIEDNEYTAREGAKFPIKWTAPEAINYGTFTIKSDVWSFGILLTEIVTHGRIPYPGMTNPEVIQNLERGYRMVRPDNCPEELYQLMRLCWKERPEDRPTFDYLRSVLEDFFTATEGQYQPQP

[13] = molecular target: each individual kinase of the panel (Homo sapiens, UniProt P06493); settings: for % Activity: CDK1/cyclinB(h)
[14] = molecular target: each individual kinase of the panel (Homo sapiens, UniProt P07332); settings: for % Activity: Fes(h)
[15] = molecular target: each individual kinase of the panel (Homo sapiens, UniProt P07948); settings: for % Activity: Lyn(h)
[16] = molecular target: each individual kinase of the panel (Homo sapiens, UniProt P08069); settings: for % Activity: IGF-1R(h)
[17] = molecular target: each individual kinase of the panel (Homo sapiens, UniProt P09619); settings: for % Activity: PDGFRβ(h)
[18] = molecular target: each individual kinase of the panel (Homo sapiens, UniProt P10721, D816H); settings: for % Activity: cKit(D816H)(h)
Chain of each individual kinase of the panel (Homo sapiens, UniProt P10721, D816H) (P10721 26-976 D816H limits assumed): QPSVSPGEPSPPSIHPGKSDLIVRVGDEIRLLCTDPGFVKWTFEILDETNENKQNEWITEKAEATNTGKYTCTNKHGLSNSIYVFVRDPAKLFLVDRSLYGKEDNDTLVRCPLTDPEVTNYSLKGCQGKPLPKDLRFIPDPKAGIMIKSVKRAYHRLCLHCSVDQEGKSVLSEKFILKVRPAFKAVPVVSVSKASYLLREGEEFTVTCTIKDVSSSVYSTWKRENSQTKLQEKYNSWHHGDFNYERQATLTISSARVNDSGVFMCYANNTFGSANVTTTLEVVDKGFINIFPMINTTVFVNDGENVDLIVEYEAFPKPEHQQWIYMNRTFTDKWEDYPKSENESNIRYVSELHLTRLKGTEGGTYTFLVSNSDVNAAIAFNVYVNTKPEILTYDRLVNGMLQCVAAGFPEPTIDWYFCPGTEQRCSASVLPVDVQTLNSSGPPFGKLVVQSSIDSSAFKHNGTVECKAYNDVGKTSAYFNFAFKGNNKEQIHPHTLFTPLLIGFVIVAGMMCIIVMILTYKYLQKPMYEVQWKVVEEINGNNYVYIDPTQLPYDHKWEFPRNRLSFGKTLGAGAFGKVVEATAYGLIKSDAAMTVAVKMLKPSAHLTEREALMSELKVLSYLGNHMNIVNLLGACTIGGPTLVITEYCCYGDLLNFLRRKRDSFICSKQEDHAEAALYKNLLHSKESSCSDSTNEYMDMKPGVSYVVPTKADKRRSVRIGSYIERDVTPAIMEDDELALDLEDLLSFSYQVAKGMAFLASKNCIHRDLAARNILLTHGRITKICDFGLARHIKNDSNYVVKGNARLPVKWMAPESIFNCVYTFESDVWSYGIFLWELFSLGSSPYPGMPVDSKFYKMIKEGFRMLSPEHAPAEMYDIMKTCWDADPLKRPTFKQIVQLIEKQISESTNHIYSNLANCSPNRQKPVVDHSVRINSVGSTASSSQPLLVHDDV

[19] = molecular target: each individual kinase of the panel (Homo sapiens, UniProt P23443); settings: for % Activity: p70S6K(h)
[20] = molecular target: each individual kinase of the panel (Homo sapiens, UniProt P36888); settings: for % Activity: Flt3(h)
[21] = molecular target: each individual kinase of the panel (Homo sapiens, UniProt P51812); settings: Rsk2(h)
[22] = molecular target: each individual kinase of the panel (Homo sapiens, UniProt P54756); settings: for % Activity: EphA5(h)
[23] = molecular target: each individual kinase of the panel (Homo sapiens, UniProt P68400); settings: for % Activity: CK2(h)
[24] = molecular target: each individual kinase of the panel (Homo sapiens, UniProt Q02763); settings: for % Activity: Tie2(h)
Chain of each individual kinase of the panel (Homo sapiens, UniProt Q02763) (Q02763 23-1124 limits assumed): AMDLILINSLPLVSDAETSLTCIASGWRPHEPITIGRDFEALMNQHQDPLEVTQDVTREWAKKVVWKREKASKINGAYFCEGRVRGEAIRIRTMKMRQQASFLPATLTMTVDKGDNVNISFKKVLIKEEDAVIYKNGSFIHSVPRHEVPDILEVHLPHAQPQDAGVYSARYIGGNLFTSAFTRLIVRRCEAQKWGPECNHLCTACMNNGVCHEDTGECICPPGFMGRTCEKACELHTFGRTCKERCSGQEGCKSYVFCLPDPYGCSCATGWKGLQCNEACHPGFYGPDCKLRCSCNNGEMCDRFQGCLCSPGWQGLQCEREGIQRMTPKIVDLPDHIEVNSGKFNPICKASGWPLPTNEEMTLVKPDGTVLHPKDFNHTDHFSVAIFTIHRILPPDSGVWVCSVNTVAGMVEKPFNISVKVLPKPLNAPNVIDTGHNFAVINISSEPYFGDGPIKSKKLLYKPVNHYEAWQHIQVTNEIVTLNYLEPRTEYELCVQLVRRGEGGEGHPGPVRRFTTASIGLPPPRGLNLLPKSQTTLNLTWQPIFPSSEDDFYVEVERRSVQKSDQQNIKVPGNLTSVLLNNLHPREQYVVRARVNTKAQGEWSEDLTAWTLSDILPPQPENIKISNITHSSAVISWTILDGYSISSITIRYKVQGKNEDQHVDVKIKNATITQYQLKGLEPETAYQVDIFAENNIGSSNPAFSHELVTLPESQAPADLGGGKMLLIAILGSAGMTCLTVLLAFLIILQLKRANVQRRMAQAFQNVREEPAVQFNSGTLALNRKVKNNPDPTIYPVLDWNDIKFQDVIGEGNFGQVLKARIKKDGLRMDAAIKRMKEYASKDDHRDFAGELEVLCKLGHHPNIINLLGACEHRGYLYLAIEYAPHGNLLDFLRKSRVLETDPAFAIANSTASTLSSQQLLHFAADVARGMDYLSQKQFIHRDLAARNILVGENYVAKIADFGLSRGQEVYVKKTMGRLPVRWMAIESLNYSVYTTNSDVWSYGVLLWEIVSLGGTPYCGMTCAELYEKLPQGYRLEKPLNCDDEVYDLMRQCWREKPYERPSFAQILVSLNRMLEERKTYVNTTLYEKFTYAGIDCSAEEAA

[25] = molecular target: each individual kinase of the panel (Homo sapiens, UniProt Q12866); settings: for % Activity: Mer(h)
[26] = molecular target: each individual kinase of the panel (Homo sapiens, UniProt Q15375); settings: for % Activity: EphA7(h)
Chain of each individual kinase of the panel (Homo sapiens, UniProt Q15375) (Q15375 28-998 limits assumed): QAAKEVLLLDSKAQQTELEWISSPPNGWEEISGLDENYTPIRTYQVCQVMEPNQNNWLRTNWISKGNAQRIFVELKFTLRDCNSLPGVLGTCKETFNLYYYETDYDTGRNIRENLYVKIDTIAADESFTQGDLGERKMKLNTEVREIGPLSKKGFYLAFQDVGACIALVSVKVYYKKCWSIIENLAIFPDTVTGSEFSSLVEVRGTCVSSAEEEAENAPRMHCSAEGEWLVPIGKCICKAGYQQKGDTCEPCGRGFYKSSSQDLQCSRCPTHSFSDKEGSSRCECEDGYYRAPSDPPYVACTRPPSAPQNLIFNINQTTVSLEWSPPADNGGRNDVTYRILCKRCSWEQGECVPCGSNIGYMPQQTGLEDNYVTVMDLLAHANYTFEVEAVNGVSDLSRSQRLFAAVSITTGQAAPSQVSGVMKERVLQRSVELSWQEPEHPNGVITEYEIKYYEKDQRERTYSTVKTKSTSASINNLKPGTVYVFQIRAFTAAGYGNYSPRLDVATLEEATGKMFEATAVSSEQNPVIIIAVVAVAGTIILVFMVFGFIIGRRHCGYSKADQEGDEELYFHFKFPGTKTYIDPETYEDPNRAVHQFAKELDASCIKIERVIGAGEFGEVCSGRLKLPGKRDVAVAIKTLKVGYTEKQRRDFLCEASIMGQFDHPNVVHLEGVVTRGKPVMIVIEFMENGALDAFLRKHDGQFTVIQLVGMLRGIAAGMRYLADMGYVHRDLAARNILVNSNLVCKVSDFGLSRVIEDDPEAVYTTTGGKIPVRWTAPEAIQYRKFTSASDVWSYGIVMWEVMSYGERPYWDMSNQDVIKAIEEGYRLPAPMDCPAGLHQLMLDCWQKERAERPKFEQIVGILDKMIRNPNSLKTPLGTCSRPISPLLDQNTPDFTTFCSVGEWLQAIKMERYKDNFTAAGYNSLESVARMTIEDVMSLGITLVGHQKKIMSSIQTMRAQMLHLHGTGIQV

[27] = molecular target: each individual kinase of the panel (Homo sapiens, UniProt Q9BZL6); settings: for % Activity: PKD2(h)
[28] = molecular target: each individual kinase of the panel (Homo sapiens, UniProt Q9NYY3); settings: for % Activity: Snk(h)
[29] = molecular target: each individual kinase of the panel (Homo sapiens, UniProt Q00534)

## Clc1ccccc1Nc1nc2c(-c3nnc[nH]3)cccc2c2cnccc12 [A]
[1]
  % Activity: 108%
[2]
  % Activity: 39%
[3]
  % Activity: 51%
[4]
  % Activity: 63%
[5]
  % Activity: 87%
[6]
  % Activity: 111%
[7]
  % Activity: 20%
[8]
  % Activity: 60%
[9]
  % Activity: 66%
[10]
  % Activity: 6%
[11]
  % Activity: 112%
[12]
  % Activity: 21%
[13]
  % Activity: 37%
[14]
  % Activity: 84%
[15]
  % Activity: 75%
[16]
  % Activity: 101%
[17]
  % Activity: 94%
[18]
  % Activity: 8%
[19]
  % Activity: 77%
[20]
  % Activity: 5%
[21]
  % Activity: 13%
[22]
  % Activity: 95%
[23]
  % Activity: 58%
[24]
  % Activity: 108%
[25]
  % Activity: 38%
[26]
  % Activity: 96%
[27]
  % Activity: 86%
[28]
  % Activity: 79%

## NC(=O)c1cccc2c1nc(Nc1cccc(Cl)c1)c1ccncc12 [B]
[1]
  % Activity: 99%
[2]
  % Activity: 55%
[3]
  % Activity: 65%
[4]
  % Activity: 87%
[5]
  % Activity: 92%
[6]
  % Activity: 101%
[7]
  % Activity: 59%
[8]
  % Activity: 54%
[9]
  % Activity: 69%
[10]
  % Activity: 23%
[11]
  % Activity: 95%
[12]
  % Activity: 24%
[13]
  % Activity: 18%
[14]
  % Activity: 94%
[15]
  % Activity: 75%
[16]
  % Activity: 90%
[17]
  % Activity: 94%
[18]
  % Activity: 9%
[19]
  % Activity: 87%
[20]
  % Activity: 7%
[21]
  % Activity: 40%
[22]
  % Activity: 93%
[23]
  % Activity: 48%
[29]; CDK6/cyclinD3(h)
  % Activity: 63%
[24]
  % Activity: 93%
[25]
  % Activity: 39%
[26]
  % Activity: 90%
[27]
  % Activity: 86%
[28]
  % Activity: 82%

## NC(=O)c1ccc2c(c1)nc(Nc1cccc(Cl)c1)c1ccncc12 [drawing 1138]
[1]
  IKK alpha percentage of activity: −13%
[2]
  JAK2 percentage of activity: −4%
[3]
  MSK2 percentage of activity: 9%
[4]
  LOK percentage of activity: 56%
[5]
  ABL1 percentage of activity: 14%
[6]
  EGFR percentage of activity: 15%
[7]
  EGFR(T790M, L858R) percentage of activity: 48%
[8]
  EGFR(L861Q) percentage of activity: 70%
[9]
  RAF1 percentage of activity: 62%
[10]
  TRKA percentage of activity: 62%
[11]
  INSR percentage of activity: 0%
[12]
  LCK percentage of activity: 79%
[13]
  CDK1/cyclinB percentage of activity: 63%
[14]
  FES percentage of activity: −2%
[15]
  LYN percentage of activity: 16%
[16]
  IGF1R percentage of activity: −23%
[17]
  PDGFRB percentage of activity: 3%
[18]
  cKit(D816H) percentage of activity: 63%
[19]
  p70S6K percentage of activity: 8%
[20]
  FLT3 percentage of activity: 100%
[22]
  EPHA5 percentage of activity: 8%
[23]
  CK2 alpha 1 percentage of activity: 84%
[29]
  CDK6/cyclinD3 percentage of activity: 6%
[24]
  TIE2 percentage of activity: 45%
[25]
  MER percentage of activity: 62%
[26]
  EPHA7 percentage of activity: 0%
[27]
  PRKd_nM2 percentage of activity: 25%
[28]
  PLK2 percentage of activity: 9%
